Data on one compound can be found in publication PMC3625590, “NBM-T-L-BMX-OS01, Semisynthesized from Osthole, Is a Novel Inhibitor of Histone Deacetylase and Enhances Learning and Memory in Rats” (Evidence-based Complementary and Alternative Medicine : eCAM, 2013).

The test system of assay [1] is Sco-induced amnesia rats. Kind of assay: Novel object recognition, Sco-induced memory impairment. In kind it is in vivo, Sprague-Dawley rats. As to conditions: Sco 1.5 mg/kg/d; BMX or SAHA 5 mg/kg/d i.p.; 8 h. As to the method: SAHA was supplied by NatureWise Biotech and Medicals Corporation (Taipei, Taiwan). […] (St. Louis, MO, USA). The BMX and SAHA stock (100 mg/mL) was dissolved in DMSO and diluted with saline to a final concentration of 0.5 mg/mL (in 0.5% DMSO/saline). […] SD rats were randomly divided into 3 groups. For the naïve animal experiments, the BMX-injected or SAHA-injected groups were injected with BMX (5 mg/kg/d) or SAHA (5 mg/kg/d) intraperitoneally 7 d prior to behavioral experiments and during the experimentation. The control group received the 0.5% DMSO/saline injection. The injection volume was 10 μL/g of body weight. The injections were performed once per day. For the amnesia experiment, the protocol was adopted from previous studies with modifications. […] The control group received the 0.5% DMSO/saline injection. The injection volume was 10 μL/g of body weight. […] The method used was adopted from that of a previous study with modifications. During familiarization, rats were allowed to explore 2 identical objects in an open field box (90 × 70 × 60 cm) for 5 min. The criteria used for exploration were a distance less than 1.5 cm between the rat and the object or direct contact with the object. […] The time that each rat spent exploring the 2 objects during a 5 min period was recorded. […]

Assay [2] concerns Sco-induced amnesia rats. Kind of assay: Water-maze learning, Sco-induced memory impairment. Particulars: Sco 1.5 mg/kg/d; BMX or SAHA 5 mg/kg/d i.p. It counts as in vivo, Sprague-Dawley rats. As to the method: SAHA was supplied by NatureWise Biotech and Medicals Corporation (Taipei, Taiwan). […] (St. Louis, MO, USA). The BMX and SAHA stock (100 mg/mL) was dissolved in DMSO and diluted with saline to a final concentration of 0.5 mg/mL (in 0.5% DMSO/saline). […] SD rats were randomly divided into 3 groups. For the naïve animal experiments, the BMX-injected or SAHA-injected groups were injected with BMX (5 mg/kg/d) or SAHA (5 mg/kg/d) intraperitoneally 7 d prior to behavioral experiments and during the experimentation. The control group received the 0.5% DMSO/saline injection. The injection volume was 10 μL/g of body weight. The injections were performed once per day. For the amnesia experiment, the protocol was adopted from previous studies with modifications. […] The control group received the 0.5% DMSO/saline injection. The injection volume was 10 μL/g of body weight. […] The method was adopted from that of a previous study with modifications. A plastic circular pool 2.0 m in diameter and 0.6 m in height was filled with water (25 ± 2°C) to a depth of 20 cm. A circular platform (8 cm in diameter) was placed at a specific location from the edge of the pool and submerged 2-3 cm below the water surface. Water was made cloudy by adding toxic-free dye. Distinctive visual cues were set on the wall. For spatial learning, animals were subjected to 3 trials per day, with one trial early in the morning, one trial at noon, and another in the late afternoon. The training procedure lasted 4 days, and a total of 12 trials were given. This procedure was adopted because spaced training is a better paradigm to facilitate memory consolidation. For these trials, the rats were positioned at different starting points spaced equally around the perimeter of the pool in random order. They had 120 s to find the hidden platform. If a rat could not find the platform, it was guided to the platform and was allowed to remain there for 20 s. The time each animal took to reach the platform was recorded as the escape latency. A probe trial of 120 s was given on day 5 to test their memory retention. The rats were placed in the pool with the platform removed, and the time they spent in each quadrant (Quadrants 1, 2, 3, and 4) was recorded. Quadrant 4 is the target quadrant. For the trained and swimming control experiments, rats in the trained group were subjected to the regular water maze learning procedure. At the end of the experiment, the rats were subjected to visible platform learning. For visible platform learning, a flag was mounted on the platform, and the platform was raised 2.5 cm above the surface of the water. In addition, the dye had not been added, so that the animals could see the location of the platform from the water. […]

SMILES strings stand for the structures. Structures can show the parent of a compound that is named as a salt.

For the compound `CN1[C@@H]2C[C@@H](OC(=O)[C@H](CO)c3ccccc3)C[C@H]1[C@@H]1O[C@@H]12` [Sco, Scopolamine hydrochloride], the “exploratory preference for the novel object (NO)” value in assay [1] is “showed no exploratory preference for the NO”. Besides, in assay [2], the “escape latency in finding the hidden platform” value was “showed longer escape latency” and the “probe trial, time spent in target quadrant” value is on record as “spent less time in the quadrant where the platform had been placed”.
